Experimental data: ChEMBL document CHEMBL4627321, “Enantioselective synthesis of tetrahydrocarbazoles via trienamine catalysis and their anxiolytic-like activity” (Bioorg Med Chem Lett, 2020)
Calls of active or inactive are those of the source. No cut-off for these calls is given here.

Key:
[1] = tested on: Mus musculus; test: Anxiolytic activity in BALB/c mouse at 3.3 mg/kg, po after 5 mins in presence of 1 mg/kg ketanserin by cylinder exploratory test; format: functional, organism-based
[2] = tested on: Mus musculus; test: Anxiolytic activity in BALB/c mouse assessed as reduction in anxiety like behaviour administered orally 1 hr prior to experiment by cylinder exploratory test; format: functional; details: for ED50: po
[3] = tested on: Mus musculus; test: Anxiolytic activity in BALB/c mouse at 3.3 mg/kg, po after 5 mins in presence of GABAA receptor antagonist 0.7 mg/kg bicuculline by cylinder exploratory test; format: functional, organism-based
[4] = Effect on locomotor activity in BALB/c mouse assessed as reduction in time spent in rotarod at <25 mg/kg, po by rotarod test; format: ADME, organism-based; details: in vivo
[5] = tested on: Mus musculus; test: Anxiolytic activity in BALB/c mouse at 25 mg/kg, po administered 1 hr prior to experiment by cylinder exploratory test relative to control; format: functional
[6] = tested on: Mus musculus; test: Anxiolytic activity in BALB/c mouse at 3.3 mg/kg, po after 5 mins in presence of 1 mg/kg yohimbine by cylinder exploratory test; format: functional, organism-based
[7] = tested on: Mus musculus; test: Anxiolytic activity in BALB/c mouse at 7.7 mg/kg, po after 5 mins in presence of 1 mg/kg yohimbine by cylinder exploratory test; format: functional, organism-based
[8] = Effect on locomotor activity in BALB/c mouse assessed as reduction in time spent in rotarod at 100 mg/kg, po measured after 1 hr post treatment by rotarod test; format: ADME, organism-based; details: in vivo
[9] = tested on: Mus musculus; test: Anxiolytic activity in BALB/c mouse at 7.7 mg/kg, po after 5 mins in presence of 1 mg/kg ketanserin by cylinder exploratory test; format: functional, organism-based
[10] = tested on: Mus musculus; test: Anxiolytic activity in BALB/c mouse at 7.7 mg/kg, po after 5 mins in presence of GABAA receptor antagonist 0.7 mg/kg bicuculline by cylinder exploratory test; format: functional, organism-based

SMILES | Activity [1] | Activity [2] | ED50 [2] [mg/kg] | Activity [3] | Activity [4] | Activity [5] [%] | Activity [6] | Activity [7] | Activity [8] | Activity [9] | Activity [10]
CCOC(=O)[C@]1(C#N)[C@@H](c2ccccc2)Cc2c(c3ccccc3n2C(=O)OC(C)(C)C)[C@@H]1CC=O | Active | Dose-dependent effect | 3.3 | inactive | Non-Toxic | 72 | Active | – | – | – | –
CCOC(=O)[C@]1(C#N)[C@@H](c2ccccc2)Cc2c(c3ccccc3n2Cc2ccccc2)[C@@H]1CC=O | – | Dose-dependent effect | 7.7 | – | Non-Toxic | 83.4 | – | Active | Toxic | Active | inactive
